Legend:
[1] = Binding affinity to PDE1 (unknown origin) assessed as inhibition constant; parameters: species or system Homo sapiens
[2] = Inhibition of PDE3 (unknown origin) by fluorescent based assay; parameters: species or system Homo sapiens
[3] = target: cGMP-specific 3',5'-cyclic phosphodiesterase (Homo sapiens, UniProt O76074); experiment: Inhibition of PDE5 (unknown origin)
[4] = Inhibition of PDE1 (unknown origin); parameters: species or system Homo sapiens
[5] = target: Dual specificity calcium/calmodulin-dependent 3',5'-cyclic nucleotide phosphodiesterase 1C (Homo sapiens, UniProt Q14123); experiment: Inhibition of PDE1C (unknown origin) using [3H]-cAMP as substrate incubated for 1 hr by SPA assay
Sequence of Dual specificity calcium/calmodulin-dependent 3',5'-cyclic nucleotide phosphodiesterase 1C (Q14123 whole entry): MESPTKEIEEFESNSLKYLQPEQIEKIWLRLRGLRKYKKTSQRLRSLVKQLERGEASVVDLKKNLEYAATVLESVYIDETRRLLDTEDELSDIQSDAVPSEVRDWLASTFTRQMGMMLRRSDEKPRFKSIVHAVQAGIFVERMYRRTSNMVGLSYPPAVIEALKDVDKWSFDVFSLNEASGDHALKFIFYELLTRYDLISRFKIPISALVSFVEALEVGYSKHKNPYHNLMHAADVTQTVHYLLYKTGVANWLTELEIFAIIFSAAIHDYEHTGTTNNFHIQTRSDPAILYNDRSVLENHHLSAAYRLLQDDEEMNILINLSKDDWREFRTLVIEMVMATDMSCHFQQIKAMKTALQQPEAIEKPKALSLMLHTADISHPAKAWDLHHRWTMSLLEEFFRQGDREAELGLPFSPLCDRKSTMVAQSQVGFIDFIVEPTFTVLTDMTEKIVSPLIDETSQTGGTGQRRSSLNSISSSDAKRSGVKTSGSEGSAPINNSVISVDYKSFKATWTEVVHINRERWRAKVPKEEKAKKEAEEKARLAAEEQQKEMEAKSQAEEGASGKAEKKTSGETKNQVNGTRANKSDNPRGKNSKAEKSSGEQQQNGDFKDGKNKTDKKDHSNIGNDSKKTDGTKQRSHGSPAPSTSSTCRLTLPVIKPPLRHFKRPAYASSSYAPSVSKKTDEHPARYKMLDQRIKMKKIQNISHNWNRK

[6] = Inhibition of PDE9 (unknown origin) by fluorescent based assay; parameters: species or system Homo sapiens
[7] = target: cGMP-inhibited 3',5'-cyclic phosphodiesterase 3A (Homo sapiens, UniProt Q14432); experiment: Inhibition of PDE3A (unknown origin)
[8] = target: High affinity 3',5'-cyclic-AMP phosphodiesterase 7A (Homo sapiens, UniProt Q13946); experiment: Inhibition of PDE7A (unknown origin)
Sequence of High affinity 3',5'-cyclic-AMP phosphodiesterase 7A (Q13946 whole entry): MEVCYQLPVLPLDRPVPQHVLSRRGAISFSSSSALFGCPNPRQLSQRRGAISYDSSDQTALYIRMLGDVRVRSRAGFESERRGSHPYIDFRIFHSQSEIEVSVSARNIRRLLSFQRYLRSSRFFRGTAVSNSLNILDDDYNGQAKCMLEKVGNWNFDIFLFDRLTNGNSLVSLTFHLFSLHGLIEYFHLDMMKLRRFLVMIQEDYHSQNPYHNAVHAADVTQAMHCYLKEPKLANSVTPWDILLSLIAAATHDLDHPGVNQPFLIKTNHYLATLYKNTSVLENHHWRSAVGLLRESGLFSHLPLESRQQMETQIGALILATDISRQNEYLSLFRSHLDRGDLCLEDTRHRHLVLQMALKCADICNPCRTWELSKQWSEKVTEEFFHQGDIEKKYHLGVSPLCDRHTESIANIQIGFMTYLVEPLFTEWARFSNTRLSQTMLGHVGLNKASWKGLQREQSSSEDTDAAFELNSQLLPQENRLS

[9] = target: High affinity cGMP-specific 3',5'-cyclic phosphodiesterase 9A (Homo sapiens, UniProt O76083); experiment: Inhibition of PDE9A (unknown origin)
[10] = Metabolic stability in rat liver microsomes assessed as half life; format: ADME, Microsome
[11] = target: cGMP-inhibited 3',5'-cyclic phosphodiesterase 3B (Homo sapiens, UniProt Q13370); experiment: Binding affinity to PDE3B (unknown origin) using [3H]cAMP as substrate assessed as inhibition constant incubated for 1 hrs by […] assay
[12] = target: T1, Dual specificity calcium/calmodulin-dependent 3',5'-cyclic nucleotide phosphodiesterase 1B (Homo sapiens, UniProt Q01064); experiment: Inhibition of PDE1B (unknown origin)
T1 sequence (Q01064 whole entry): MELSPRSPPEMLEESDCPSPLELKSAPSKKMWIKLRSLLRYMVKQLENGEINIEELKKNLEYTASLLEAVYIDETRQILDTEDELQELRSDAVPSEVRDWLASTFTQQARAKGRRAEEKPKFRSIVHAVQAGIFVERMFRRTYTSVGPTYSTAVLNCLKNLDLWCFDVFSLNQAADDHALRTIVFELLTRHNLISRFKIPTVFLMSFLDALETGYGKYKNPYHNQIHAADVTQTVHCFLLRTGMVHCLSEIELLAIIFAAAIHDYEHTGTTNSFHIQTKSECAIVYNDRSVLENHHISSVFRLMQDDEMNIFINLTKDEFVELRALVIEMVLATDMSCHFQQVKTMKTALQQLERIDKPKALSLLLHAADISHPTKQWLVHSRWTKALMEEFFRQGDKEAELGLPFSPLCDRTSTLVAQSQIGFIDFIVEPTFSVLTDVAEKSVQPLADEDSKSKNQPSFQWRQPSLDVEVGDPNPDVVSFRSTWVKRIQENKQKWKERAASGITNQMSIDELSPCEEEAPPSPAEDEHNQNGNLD

[13] = target: T1, Dual specificity calcium/calmodulin-dependent 3',5'-cyclic nucleotide phosphodiesterase 1B; experiment: Inhibition of PDE1B (unknown origin) using [3H]-cGMP substrate incubated for 15 mins by liquid scintillation counting method
[14] = target: cGMP-dependent 3',5'-cyclic phosphodiesterase (Homo sapiens, UniProt O00408); experiment: Inhibition of full-length recombinant human PDE2A using [3H]-cGMP as substrate incubated for 10 mins by SPA assay
Sequence of cGMP-dependent 3',5'-cyclic phosphodiesterase (O00408 whole entry): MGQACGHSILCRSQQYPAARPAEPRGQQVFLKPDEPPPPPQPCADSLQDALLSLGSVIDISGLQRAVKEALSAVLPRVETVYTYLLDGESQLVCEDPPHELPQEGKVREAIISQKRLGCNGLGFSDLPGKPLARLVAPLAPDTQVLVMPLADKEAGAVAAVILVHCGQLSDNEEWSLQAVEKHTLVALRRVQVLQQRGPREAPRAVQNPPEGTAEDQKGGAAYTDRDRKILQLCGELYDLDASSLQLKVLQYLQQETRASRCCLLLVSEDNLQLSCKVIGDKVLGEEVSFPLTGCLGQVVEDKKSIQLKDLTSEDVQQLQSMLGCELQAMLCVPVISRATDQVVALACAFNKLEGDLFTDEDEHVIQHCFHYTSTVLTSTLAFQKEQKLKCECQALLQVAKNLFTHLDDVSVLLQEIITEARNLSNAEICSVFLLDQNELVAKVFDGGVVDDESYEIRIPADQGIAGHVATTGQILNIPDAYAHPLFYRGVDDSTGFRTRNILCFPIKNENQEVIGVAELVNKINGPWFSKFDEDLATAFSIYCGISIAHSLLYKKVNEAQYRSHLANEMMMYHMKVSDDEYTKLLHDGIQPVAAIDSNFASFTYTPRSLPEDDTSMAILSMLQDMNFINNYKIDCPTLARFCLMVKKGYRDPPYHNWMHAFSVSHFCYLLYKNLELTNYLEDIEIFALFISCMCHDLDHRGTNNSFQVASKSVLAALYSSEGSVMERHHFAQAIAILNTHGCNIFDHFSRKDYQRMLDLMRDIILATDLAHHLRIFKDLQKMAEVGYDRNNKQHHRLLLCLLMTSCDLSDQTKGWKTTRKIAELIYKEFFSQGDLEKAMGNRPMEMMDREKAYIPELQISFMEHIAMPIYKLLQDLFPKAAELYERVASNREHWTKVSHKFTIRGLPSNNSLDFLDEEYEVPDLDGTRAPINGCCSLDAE

[15] = target: 3',5'-cyclic-AMP phosphodiesterase 4D (Homo sapiens, UniProt Q08499); experiment: Inhibition of PDE4D (unknown origin)
Sequence of 3',5'-cyclic-AMP phosphodiesterase 4D (Q08499 whole entry): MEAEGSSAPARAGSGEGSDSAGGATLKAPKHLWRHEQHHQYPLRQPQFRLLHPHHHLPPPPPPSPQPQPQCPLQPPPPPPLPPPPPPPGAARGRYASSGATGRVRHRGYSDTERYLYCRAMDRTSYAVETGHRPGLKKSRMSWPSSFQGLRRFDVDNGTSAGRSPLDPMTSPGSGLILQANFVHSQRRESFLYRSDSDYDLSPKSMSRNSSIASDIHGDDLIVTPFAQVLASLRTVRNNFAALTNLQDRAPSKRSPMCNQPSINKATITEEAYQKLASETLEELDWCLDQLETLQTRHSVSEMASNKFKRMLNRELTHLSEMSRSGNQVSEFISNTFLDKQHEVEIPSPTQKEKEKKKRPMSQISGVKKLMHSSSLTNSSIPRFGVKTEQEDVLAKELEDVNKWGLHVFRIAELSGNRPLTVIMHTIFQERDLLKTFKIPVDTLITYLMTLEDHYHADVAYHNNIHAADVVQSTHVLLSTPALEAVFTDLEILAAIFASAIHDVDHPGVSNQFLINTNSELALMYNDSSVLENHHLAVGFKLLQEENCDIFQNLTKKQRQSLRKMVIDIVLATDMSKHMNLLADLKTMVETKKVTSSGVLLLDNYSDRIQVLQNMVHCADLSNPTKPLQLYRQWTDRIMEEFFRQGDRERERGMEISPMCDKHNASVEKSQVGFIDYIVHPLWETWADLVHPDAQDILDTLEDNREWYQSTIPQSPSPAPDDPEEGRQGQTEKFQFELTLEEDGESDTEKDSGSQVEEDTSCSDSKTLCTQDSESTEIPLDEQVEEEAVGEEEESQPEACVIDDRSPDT

[16] = target: High affinity cAMP-specific and IBMX-insensitive 3',5'-cyclic phosphodiesterase 8A (Homo sapiens, UniProt O60658); experiment: Inhibition of full-length recombinant human PDE8A using [3H]-cAMP as substrate incubated for 10 mins by SPA assay
Sequence of High affinity cAMP-specific and IBMX-insensitive 3',5'-cyclic phosphodiesterase 8A (O60658 whole entry): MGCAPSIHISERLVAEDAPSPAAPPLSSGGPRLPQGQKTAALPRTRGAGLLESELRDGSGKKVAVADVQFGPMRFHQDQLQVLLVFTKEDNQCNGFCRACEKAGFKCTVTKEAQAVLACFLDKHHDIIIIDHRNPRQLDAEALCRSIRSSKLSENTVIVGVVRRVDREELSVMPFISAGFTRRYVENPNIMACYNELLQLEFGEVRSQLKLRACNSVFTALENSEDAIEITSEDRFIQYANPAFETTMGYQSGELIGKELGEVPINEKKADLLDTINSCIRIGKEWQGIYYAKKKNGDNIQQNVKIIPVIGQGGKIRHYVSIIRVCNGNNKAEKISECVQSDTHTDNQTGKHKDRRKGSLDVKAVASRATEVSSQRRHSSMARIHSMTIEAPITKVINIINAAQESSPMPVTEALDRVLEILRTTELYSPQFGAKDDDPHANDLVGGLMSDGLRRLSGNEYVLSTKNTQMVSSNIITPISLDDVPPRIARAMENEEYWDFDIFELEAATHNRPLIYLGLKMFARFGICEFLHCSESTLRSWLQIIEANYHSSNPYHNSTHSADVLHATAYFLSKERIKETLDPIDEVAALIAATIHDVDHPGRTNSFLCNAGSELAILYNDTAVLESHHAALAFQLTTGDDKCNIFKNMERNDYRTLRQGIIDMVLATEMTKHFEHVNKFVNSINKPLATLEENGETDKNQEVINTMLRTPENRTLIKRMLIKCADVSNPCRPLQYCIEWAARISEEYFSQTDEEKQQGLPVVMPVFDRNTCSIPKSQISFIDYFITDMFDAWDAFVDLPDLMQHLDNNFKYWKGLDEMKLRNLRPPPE

[17] = target: T2, Dual specificity calcium/calmodulin-dependent 3',5'-cyclic nucleotide phosphodiesterase 1A (Homo sapiens, UniProt P54750); experiment: Inhibition of PDE1A (unknown origin) using [3H]-cAMP as substrate incubated for 1 hr by SPA assay
T2 sequence (P54750 whole entry): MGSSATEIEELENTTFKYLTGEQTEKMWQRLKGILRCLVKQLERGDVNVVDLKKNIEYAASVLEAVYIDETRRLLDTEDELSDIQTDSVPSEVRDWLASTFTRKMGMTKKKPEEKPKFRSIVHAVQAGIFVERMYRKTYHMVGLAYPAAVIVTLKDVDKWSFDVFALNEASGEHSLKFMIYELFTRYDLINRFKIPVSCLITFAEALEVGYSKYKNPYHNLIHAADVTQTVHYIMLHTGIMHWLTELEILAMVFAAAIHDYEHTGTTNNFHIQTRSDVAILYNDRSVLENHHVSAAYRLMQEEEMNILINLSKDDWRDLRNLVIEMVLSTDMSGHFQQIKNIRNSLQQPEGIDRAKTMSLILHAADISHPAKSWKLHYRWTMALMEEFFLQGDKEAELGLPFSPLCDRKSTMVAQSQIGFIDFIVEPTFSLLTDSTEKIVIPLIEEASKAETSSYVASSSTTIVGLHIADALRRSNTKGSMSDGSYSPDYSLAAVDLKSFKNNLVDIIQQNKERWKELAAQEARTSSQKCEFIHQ

[18] = target: Phosphodiesterase 4 (Homo sapiens) (UniProt P27815+Q08499+Q07343+Q08493); experiment: Inhibition of PDE4 (unknown origin) at 10 uM relative to control; format: protein assay
[19] = target: T1, Dual specificity calcium/calmodulin-dependent 3',5'-cyclic nucleotide phosphodiesterase 1B; experiment: Inhibition of PDE1B (unknown origin) using [3H]-cAMP as substrate incubated for 1 hr by SPA assay
[20] = target: T2, Dual specificity calcium/calmodulin-dependent 3',5'-cyclic nucleotide phosphodiesterase 1A; experiment: Inhibition of PDE1A3 (unknown origin)

CN1C(=O)c2c(nn(Cc3ccc(-c4cccc(F)n4)cc3)c2Nc2ccccc2)N2C1=N[C@@H]1CCC[C@@H]12 [LENRISPODUN PHOSPHATE]
Ki [1]: 0.058 nM

COCc1nc2c([nH]1)c(=O)n(C)c(=O)n2CC(C)C
IC50 [2]: 240 nM | IC50 [3]: 10000 nM | IC50 [4]: 8000 nM

Cn1c(=O)c2c(ncn2C)n(C)c1=O [CAFFEINE]
IC50 [4]: 479000 nM

COc1cc2ncnc(N3C[C@@H](OO)[C@@H]4OC[C@@H](OC(C)=O)[C@@H]43)c2cc1OC
IC50 [5]: 2200 nM

C[C@@H](Nc1nc2c(cnn2C2CCCC2)c(=O)[nH]1)c1ccc(Cl)cc1
IC50 [6]: 58 nM | IC50 [4]: 80 nM

C[C@@H](Nc1nc2c(cnn2C(C)(C)C)c(=O)n1Cc1ccc(F)cc1)c1ccc(Cl)cc1
IC50 [7]: > 10000 nM | IC50 [8]: > 10000 nM | IC50 [9]: > 10000 nM | IC50 [4]: 2.9 nM | half-life [10]: 15.8 min

CNc1ncnc2c1ncn2Cc1ccccc1F [BW-A78U]
IC50 [3]: 6500 nM | Ki [11]: 35000 nM | Ki [1]: 3700 nM

CCCc1nn(C)c2c(=O)[nH]c(-c3cc(S(=O)(=O)N4CCN(C)CC4)ccc3OCC)nc12
IC50 [4]: 396 nM

COc1ccc(Cn2c(=O)n3ncnc3c3cc(CN4CCCOCC4)sc32)cc1
IC50 [12]: < 100 nM

Cn1c(=O)c2c(Nc3ccc(F)cc3)n(Cc3ccc(S(C)(=O)=O)cc3)nc2n(CC2CC2)c1=O
IC50 [13]: 21 nM | IC50 [14]: 8520 nM | IC50 [8]: > 2500 nM | IC50 [15]: 1500 nM | half-life [10]: 28.5 min | IC50 [16]: > 10000 nM

Cn1c(=O)c2c(Nc3ccccc3)n(Cc3ccc(-c4cccc(F)n4)cc3)nc2n(CC2CC2)c1=O
IC50 [13]: 3.8 nM | half-life [10]: 4.5 min

COc1cc2ncnc(N3C[C@@H](Cl)[C@@H]4OC[C@@H](OC)[C@@H]43)c2cc1OC
IC50 [5]: 2400 nM

COCCOC(=O)C1=C(C)NC(C)=C(C(=O)OC(C)C)C1c1cccc([N+](=O)[O-])c1 (stereo not given) [NIMODIPINE]
IC50 [17]: 2000 nM

COc1ccc2c(N3C[C@@H](Cl)[C@@H]4OC[C@@H](OCc5ccccc5)[C@@H]43)ncnc2c1OC
inhibition [18]: 27% | IC50 [5]: 573 nM | IC50 [19]: 2820 nM | IC50 [17]: 4660 nM

CCOC(=O)C1=C[C@]2(CC)CCCN3CCc4c(n1c1ccccc41)[C@@H]32 [VINPOCETINE]
IC50 [4]: 30000 nM

O=c1c2c(Cc3ccccc3)n[nH]c2c2cccnc2n1-c1ccccc1
IC50 [12]: 790 nM | IC50 [20]: 32 nM

Reference: ChEMBL document CHEMBL5537126, “Advances in targeting Phosphodiesterase 1: From mechanisms to potential therapeutics” (Eur J Med Chem, 2024)
